Like-named read-outs stand apart in the source and are kept apart here.
Tests used:
[1] = tested on: 3D primary human hepatocyte (PHH) high density spheroids; assay: 3D PHH high density spheroid drug clearance assay; format: in vitro ADME; settings: 0.1 μM substrate, 6-well spheroid insert, in vivo hepatic clearance predicted from in vitro Clint by well stirred model
Protocol: Plating PHHs onto 6-well high density spheroid insert (−700 microwells/insert): PHH were thawed as standard procedure and resuspended in WEM plating medium. PHH cells were counted and the cell density was adjusted to 0.35e6/ml using WEM plating medium. For plating PHHs, the pipet aid was set at low disperse speed. Right before plating, a 5 mL pipet was used to remove most medium from pre-wetted inserts. Even cell suspensions were prepared by gently pipetting up and down. Using a 5 mL pipet, with the position the tip against the side wall at the bottom, 2 mL of cell suspension (700K cells, -1000 cells/microwell) was added to a 6-well spheroid insert. The plate was allowed to sit for 15-20 min in the hood. The plates were checked under a microscope with a 4x objective, to ensure that that a similar number of cells have settled into each microwell.
Half medium change with WME+medium: The pipet aid was at low disperse speed. Using a 5 mL pipet, 1 mL of old medium was slowly from each insert. A 1000 μL pipet tip was positioned against the top part of the insert sidewall, and 1 mL pre-warmed WME+medium was slowly added with the medium being allowed to flow down the sidewall. After waiting 5-10 minutes between each half medium change, the half medium change was repeated 3 more times. The PHHs were checked under a microscope for spheroid formation.
Incubate the candidate compound(s) to be tested for clearance with the cultured spheroids: The pipet aid was set at low disperse speed. Using a 5 mL pipet, 1 mL of old medium was slowly removed from each insert. […] After 5-10 minutes, the culture was placed back to 37° C. incubator. The timer for incubation was started at this point.
Sampling: 40 μL/well stop solutions Labetalol (0.2 uM IN 0.05% FA/50%ACN) was aliquoted in an assay plate and kept on ice. At the desired assay incubation time (0 hr, 1 hr, 2 hrs, 4 hrs, 6 hrs, 12 hrs, 24 hrs, 36 hrs, 48 hrs, 3 days, 4 days, 5 days, 6 days, 7 days, 8 days, 9 days, 10 days, 11 days, 12 days, 13 days 14 days, 3 weeks, 4 weeks, or any value or range there between), 40 μL sample were drawn from each incubation well, mixed well with stop solution, and stored at −80° C.
LC/MS analysis: The amount of the candidate compound was measured using liquid chromatography/mass spectrometry, as is known in the art.
Calculate the elimination rate constant (ke1): The percentage of the candidate compound remaining in the culture was calculated by dividing the mass spectrometry peak area ratio at certain incubation times to that at time zero, as is known in the art. The natural logarithm of the percentage of the remaining candidate compound was plotted against time, and the kelwas calculated as the absolute value from the slope.
Calculate the depletion half-lives of the candidate compounds: Once the kel was determined for the candidate compound, the depletion half-life of the candidate compound was determined by Equation 1, as is known in the art.
Calculate the;n vitro clearance (Clint) of the candidate compound: The in vitro clearance of the candidate compounds was calculated using the in vitro half-lives from Equation 1 using the scaling factors of Equation 2, as is known in the art.
Calculate predicted in vivo hepatic clearance (CLh): The in vivo hepatic clearance was calculated from the in vitro clearance determined by Equation 2 using the well stirred model Equation 3, as is known in the art.

[2] = tested on: PHHs grown in suspension format; settings: human
[3] = actual in vivo clearance for comparison; cited from earlier work
[4] = tested on: PHHs grown in suspension format; assay: Clearance measurement with PHHs grown in suspension format; settings: FIGS. 8A-I

Row | Compound | Predicted CLh, 3D HD Spheroids [1] | Measurability of clearance in suspension hepatocytes [2] | In Vivo CLnonrenal [3] | Measurability of clearance in suspension hepatocytes [4]
1 | CC(=O)CC(c1ccccc1)c1c(O)c2ccccc2oc1=O (centres unmarked) [Warfarin] | 0.01 | unable to measure | – | –
2 | Cc1nnc2n1-c1ccc(Cl)cc1C(c1ccccc1)=NC2 [Alprazolam] | 0.45 | – | 0.61 | unable to measure
3 | CCCCNC(=O)NS(=O)(=O)c1ccc(C)cc1 [Tolbutamide] | 0.22 | unable to measure | – | –
4 | CN1C(=O)CN=C(c2ccccc2)c2cc(Cl)ccc21 [Diazepam] | – | – | 0.53 | –
5 | CCC1=C(C)CN(C(=O)NCCc2ccc(S(=O)(=O)NC(=O)N[C@H]3CC[C@H](C)CC3)cc2)C1=O [Glimepiride] | 0.04 | unable to measure | 1.12 | –
6 | C[C@]12C=CC(=O)C=C1CC[C@@H]1[C@@H]2[C@@H](O)C[C@@]2(C)[C@H]1CC[C@]2(O)C(=O)CO [Prednisolone] | 0.60 | unable to measure | 1.44 | –

Source: patent publication US20250172543A1, “HIGH DENSITY 3D HEPATOCYTE SPHEROID PLATFORM FOR DRUG ADME STUDIES” (Discovery Life Sciences, LLC, priority 2018, published 2025)
